Laboratory results: patent US20220184040A1, “METHOD OF TREATING MALIGNANT RHABDOID TUMOR OF THE OVARY AND SMALL CELL CANCER OF THE OVARY OF THE HYPERCALCEMIC TYPE” (TRANSLATIONAL DRUG DEVELOPMENT, LLC, priority 2019, published 2022)
“Also recorded” adds a separate entry of the source. Read-outs that look alike come from different tables or passages of the source.

Columns and labels:
H522 = test: CellTiter-Glo cell viability assay, H522; assay type: cell-based; settings: Homo sapiens, NCI-H522; read-out: anti-proliferative IC50
Protocol: (§1) Cell viability was measured by the CellTiter -GlO® cell viability assay from Promega (Madison, Wis.). The CellTiter-GlO® Luminescent Cell Viability Assay is a homogeneous method to determine the number of viable cells in culture based on quantitation of the ATP present, which signals the presence of metabolically active cells. Following treatment, CellTiter-GlO® is added to treatment wells and incubated at 37° C. luminescence values were measured at using a Molecular Devices Spectramax microplate reader
(§2) Cells were grown to 70% confluency, trypsinized, counted, and seeded in 96 well flat-bottom plates at a final concentration of 2.5×10^3-5×10^3 cells/well (Day 0). Cells were allowed to incubate in growth media for 24 hours. Treatment with the test agents or standard agents began on Day 1 and continued for 72 hours. At the 72-hour timepoint, treatment containing media was removed. Viable cell numbers are quantified by the CellTiter-GlO® cell viability assay as described above. […]
(§3) For single agent and combination studies, data from each experiment was collected and expressed as % Cell Growth using the following calculation: […]
(§4) Where ftest is the fluorescence of the tested sample, and fvehicle is the fluorescence of the vehicle in which the drug is dissolved. […]

[1] = test system: Dual SMARCA2 and SMARCA4 deficient cell lines (A204, G401, G402, H522, and A427); test: Proliferation assays, dual SMARCA2 and SMARCA4 deficient cell lines; assay type: cell-based; settings: range over A204, G401, G402, H522, A427
Protocol: as §1, §2, §3, §4

[2] = test system: G401 human malignant rhabdoid tumor xenografts; test: Malignant rhabdoid tumor xenograft model (G401); assay type: in vivo, mice
Protocol: In vivo treatment of tumors in a malignant rhabdoid tumor xenograft model (G401) was evaluated. In vivo xenograft tumors from MRT line G401 were dosed with (S)-N-hydroxy-2-(2-(4-methoxyphenyl)butanamido)thiazole-5-carboxamide (i.e., GB-3103) for 30 days.

COV434 = test: CellTiter-Glo cell viability assay, COV434; assay type: cell-based; settings: Homo sapiens
Protocol: as §1, §2, §3, §4

HDAC7 = HDAC7 (Homo sapiens, UniProt Q8WUI4); test: HDAC isoform inhibition, HDAC7; assay type: biochemical
Text: (§5) In contrast to pan-HDAC inhibition, isoform restricted HDAC inhibition revokes immune privilege. HDAC3 has emerged as a key target to enhance immune function: • Decrease in Treg suppressive function • Increase in Natural Killer Cell ligand expression on tumors • Enhance macrophage host defense activity • Upregulation of PD-L1 expression and increased sensitivity to anti-PD1 treatments HDAC6 inhibition has potent immunomodulatory benefits including: • Decrease in expression of the anti-inflammatory cytokine IL-10 • Enhanced expression of MHC class I/II genes and increased expression of known tumor antigens • Decreased immunosuppression and enhanced immune function of melanoma patient T-cells

BIN67 = test: CellTiter-Glo cell viability assay, BIN67; assay type: cell-based; settings: Homo sapiens; BIN67, 72 hours treatment
Protocol: as §1, §2, §3, §4

HDAC10 = HDAC10 (Homo sapiens, UniProt Q969S8); test: HDAC isoform inhibition, HDAC10; assay type: biochemical
Chain of HDAC10 (Q969S8 whole entry, canonical isoform): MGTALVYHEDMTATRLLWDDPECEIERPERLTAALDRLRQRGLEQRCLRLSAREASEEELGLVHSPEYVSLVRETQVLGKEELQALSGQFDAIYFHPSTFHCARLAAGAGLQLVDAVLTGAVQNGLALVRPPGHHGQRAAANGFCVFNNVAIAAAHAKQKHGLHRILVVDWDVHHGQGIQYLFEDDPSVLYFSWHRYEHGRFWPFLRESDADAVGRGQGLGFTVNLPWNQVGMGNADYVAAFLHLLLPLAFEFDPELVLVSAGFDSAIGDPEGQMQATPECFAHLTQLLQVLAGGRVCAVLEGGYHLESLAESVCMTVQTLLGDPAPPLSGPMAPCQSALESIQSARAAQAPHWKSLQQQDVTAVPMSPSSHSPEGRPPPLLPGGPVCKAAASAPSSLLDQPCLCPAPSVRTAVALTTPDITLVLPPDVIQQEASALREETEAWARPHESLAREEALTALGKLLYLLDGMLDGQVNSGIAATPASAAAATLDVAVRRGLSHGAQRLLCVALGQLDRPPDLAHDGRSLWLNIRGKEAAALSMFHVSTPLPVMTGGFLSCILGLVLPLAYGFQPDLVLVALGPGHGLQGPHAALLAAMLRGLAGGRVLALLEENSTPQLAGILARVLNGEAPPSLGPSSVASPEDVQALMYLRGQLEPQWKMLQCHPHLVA
Text: as §5

HDAC1 = HDAC1 (Homo sapiens, UniProt Q13547); test: HDAC isoform inhibition, HDAC1; assay type: biochemical
Text: as §5

HDAC8 = HDAC8 (Homo sapiens, UniProt Q9BY41); test: HDAC isoform inhibition, HDAC8; assay type: biochemical
Chain of HDAC8 (Q9BY41 whole entry, canonical isoform): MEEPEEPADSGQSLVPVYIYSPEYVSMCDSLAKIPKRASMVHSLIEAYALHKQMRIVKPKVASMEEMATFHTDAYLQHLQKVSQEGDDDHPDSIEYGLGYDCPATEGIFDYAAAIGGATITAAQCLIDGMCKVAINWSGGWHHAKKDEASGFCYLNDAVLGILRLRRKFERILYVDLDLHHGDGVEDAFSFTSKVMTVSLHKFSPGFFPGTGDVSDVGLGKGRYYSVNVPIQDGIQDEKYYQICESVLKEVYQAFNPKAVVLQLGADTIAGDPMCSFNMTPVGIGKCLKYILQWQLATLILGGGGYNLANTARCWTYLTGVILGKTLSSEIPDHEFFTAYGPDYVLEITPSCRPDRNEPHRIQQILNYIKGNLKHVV
Text: as §5

G401 = test: CellTiter-Glo cell viability assay, G401; assay type: cell-based; settings: Homo sapiens, G-401, read-out: anti-proliferative IC50
Protocol: as §1, §2, §3, §4

A427 = test: CellTiter-Glo cell viability assay, A427; assay type: cell-based; settings: Homo sapiens, A-427, read-out: anti-proliferative IC50
Protocol: as §1, §2, §3, §4

CT-26 tumors = test: Syngeneic CT-26 mouse colon cancer model; assay type: in vivo
Text: Given the importance of MHC Class II expression and response to checkpoint inhibitor therapies, we tested the activity of GB-3103 alone and in combination with anti-mPD-1 and anti-mPD-L1 antibodies in a syngeneic CT-26 mouse colon cancer model. […] However, tumor growth resumed on Day 15 and continued to increase until Day 26 (see FIG. 7).

HDAC11 = HDAC11 (Homo sapiens, UniProt Q96DB2); test: HDAC isoform inhibition, HDAC11; assay type: biochemical
Chain of HDAC11 (Q96DB2 whole entry, canonical isoform): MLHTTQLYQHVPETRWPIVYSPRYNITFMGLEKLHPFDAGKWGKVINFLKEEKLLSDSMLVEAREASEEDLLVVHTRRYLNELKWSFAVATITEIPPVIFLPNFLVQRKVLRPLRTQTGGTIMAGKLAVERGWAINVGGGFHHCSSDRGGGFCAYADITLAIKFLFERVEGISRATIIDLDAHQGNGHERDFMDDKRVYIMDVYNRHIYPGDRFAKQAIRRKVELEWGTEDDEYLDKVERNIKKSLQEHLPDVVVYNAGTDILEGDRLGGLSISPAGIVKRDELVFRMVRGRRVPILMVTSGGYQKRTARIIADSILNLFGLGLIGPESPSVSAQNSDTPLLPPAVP
Text: as §5

HDAC9 = HDAC9 (Homo sapiens, UniProt Q9UKV0); test: HDAC isoform inhibition, HDAC9; assay type: biochemical
Text: as §5

HDAC3 = HDAC3 (Homo sapiens, UniProt O15379); test: HDAC isoform inhibition, HDAC3; assay type: biochemical
Chain of HDAC3 (O15379 whole entry, canonical isoform): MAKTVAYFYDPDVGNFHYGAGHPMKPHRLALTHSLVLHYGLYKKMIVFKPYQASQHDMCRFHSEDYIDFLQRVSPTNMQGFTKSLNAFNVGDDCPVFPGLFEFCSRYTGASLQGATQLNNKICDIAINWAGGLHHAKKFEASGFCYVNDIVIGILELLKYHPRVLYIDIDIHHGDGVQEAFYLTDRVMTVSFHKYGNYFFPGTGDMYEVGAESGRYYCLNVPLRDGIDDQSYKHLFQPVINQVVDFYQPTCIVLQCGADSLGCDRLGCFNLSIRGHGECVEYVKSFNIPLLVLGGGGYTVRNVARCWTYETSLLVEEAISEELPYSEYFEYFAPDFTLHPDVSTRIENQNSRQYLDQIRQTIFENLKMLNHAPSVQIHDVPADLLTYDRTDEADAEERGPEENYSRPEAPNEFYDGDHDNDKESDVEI
Chain of HDAC3 (Q9Y618 395-489 partner limits assumed): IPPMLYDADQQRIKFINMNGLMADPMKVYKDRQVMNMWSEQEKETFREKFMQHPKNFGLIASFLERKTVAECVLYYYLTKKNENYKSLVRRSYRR
Text: as §5

HDAC5 = HDAC5 (Homo sapiens, UniProt Q9UQL6); test: HDAC isoform inhibition, HDAC5; assay type: biochemical
Chain of HDAC5 (Q9UQL6 whole entry, canonical isoform): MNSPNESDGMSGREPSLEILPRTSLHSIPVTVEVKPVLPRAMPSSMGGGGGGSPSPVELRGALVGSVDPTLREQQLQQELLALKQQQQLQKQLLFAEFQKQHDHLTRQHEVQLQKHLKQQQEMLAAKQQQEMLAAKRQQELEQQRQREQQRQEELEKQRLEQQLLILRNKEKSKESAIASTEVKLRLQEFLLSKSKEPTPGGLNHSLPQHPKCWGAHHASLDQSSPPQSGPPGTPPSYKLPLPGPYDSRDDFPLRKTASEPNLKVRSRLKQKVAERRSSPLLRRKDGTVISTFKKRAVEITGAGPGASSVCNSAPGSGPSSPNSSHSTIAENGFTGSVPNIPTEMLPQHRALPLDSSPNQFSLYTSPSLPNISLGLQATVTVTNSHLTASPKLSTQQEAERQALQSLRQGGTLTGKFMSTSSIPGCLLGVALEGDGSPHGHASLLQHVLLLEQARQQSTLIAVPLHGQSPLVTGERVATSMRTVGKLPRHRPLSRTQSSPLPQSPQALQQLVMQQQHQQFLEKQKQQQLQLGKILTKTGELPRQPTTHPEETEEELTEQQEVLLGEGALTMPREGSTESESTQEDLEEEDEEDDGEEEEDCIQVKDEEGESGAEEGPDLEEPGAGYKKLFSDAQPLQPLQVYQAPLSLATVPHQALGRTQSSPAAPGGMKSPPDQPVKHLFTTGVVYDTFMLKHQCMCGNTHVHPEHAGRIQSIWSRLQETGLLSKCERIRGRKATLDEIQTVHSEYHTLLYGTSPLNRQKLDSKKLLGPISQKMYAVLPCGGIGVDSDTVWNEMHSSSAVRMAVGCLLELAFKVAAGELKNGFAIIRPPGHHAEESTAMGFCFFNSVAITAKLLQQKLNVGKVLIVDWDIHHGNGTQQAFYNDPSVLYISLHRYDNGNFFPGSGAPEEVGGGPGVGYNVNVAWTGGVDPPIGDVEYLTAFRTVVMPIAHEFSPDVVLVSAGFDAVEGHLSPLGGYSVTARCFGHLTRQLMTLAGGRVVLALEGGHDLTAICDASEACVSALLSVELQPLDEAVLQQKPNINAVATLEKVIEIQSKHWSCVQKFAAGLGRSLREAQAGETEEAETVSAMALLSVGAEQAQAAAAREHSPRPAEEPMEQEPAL
Text: as §5

BIN67 cells = test: RNA-Seq analyses of treated BIN67 cells; assay type: cell-based, human
HDAC4 = HDAC4 (Homo sapiens, UniProt P56524); test: HDAC isoform inhibition, HDAC4; assay type: biochemical
Text: as §5

HDAC2 = HDAC2 (Homo sapiens, UniProt Q92769); test: HDAC isoform inhibition, HDAC2; assay type: biochemical
Chain of HDAC2 (Q92769 whole entry, canonical isoform): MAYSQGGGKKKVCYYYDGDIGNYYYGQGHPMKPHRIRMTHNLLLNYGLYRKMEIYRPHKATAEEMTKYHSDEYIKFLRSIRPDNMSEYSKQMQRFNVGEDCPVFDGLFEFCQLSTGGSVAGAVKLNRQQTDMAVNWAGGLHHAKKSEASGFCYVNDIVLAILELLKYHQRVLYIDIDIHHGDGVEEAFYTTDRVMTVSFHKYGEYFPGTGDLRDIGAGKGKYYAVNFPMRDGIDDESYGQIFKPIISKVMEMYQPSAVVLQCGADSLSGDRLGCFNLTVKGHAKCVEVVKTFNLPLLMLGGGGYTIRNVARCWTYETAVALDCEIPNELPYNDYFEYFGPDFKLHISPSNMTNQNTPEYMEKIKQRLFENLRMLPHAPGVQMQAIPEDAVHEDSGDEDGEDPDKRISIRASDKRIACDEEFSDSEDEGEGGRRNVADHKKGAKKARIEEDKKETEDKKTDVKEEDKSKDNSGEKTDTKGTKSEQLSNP
Text: as §5

[3] = test system: SCCOHT cell lines (BIN67, COV434, and SCCOHT-1); test: Cell proliferation assays, three SCCOHT cell lines; assay type: cell-based; settings: Homo sapiens; range over BIN67, COV434, SCCOHT-1
Protocol: as §1, §2, §3, §4

[4] = test system: SMARCA2 gene expression in BIN-67 cells; test: SMARCA2 gene expression in treated BIN-67 cells; assay type: cell-based, human; settings: in vitro treatment
[5] = test system: BIN67 human tumor xenografts; test: SCCOHT xenograft model (BIN-67); assay type: in vivo, mice; settings: for mean tumor regression: BIN67 xenografts in mice, two weeks post-treatment initiation
Protocol: In vivo treatment of tumors in an SCCOHT xenograft model (BIN-67) was evaluated. In vivo xenograft tumors from SCCOHT cell line BIN-67 were dosed with (S)-N-hydroxy-2-(2-(4-methoxyphenyl)butanamido)thiazole-5-carboxamide (i.e., GB-3103) for 60 days.

HDAC6 = HDAC6 (Homo sapiens, UniProt Q9UBN7); test: HDAC isoform inhibition, HDAC6; assay type: biochemical
Chain of HDAC6 (Q9UBN7 whole entry, canonical isoform): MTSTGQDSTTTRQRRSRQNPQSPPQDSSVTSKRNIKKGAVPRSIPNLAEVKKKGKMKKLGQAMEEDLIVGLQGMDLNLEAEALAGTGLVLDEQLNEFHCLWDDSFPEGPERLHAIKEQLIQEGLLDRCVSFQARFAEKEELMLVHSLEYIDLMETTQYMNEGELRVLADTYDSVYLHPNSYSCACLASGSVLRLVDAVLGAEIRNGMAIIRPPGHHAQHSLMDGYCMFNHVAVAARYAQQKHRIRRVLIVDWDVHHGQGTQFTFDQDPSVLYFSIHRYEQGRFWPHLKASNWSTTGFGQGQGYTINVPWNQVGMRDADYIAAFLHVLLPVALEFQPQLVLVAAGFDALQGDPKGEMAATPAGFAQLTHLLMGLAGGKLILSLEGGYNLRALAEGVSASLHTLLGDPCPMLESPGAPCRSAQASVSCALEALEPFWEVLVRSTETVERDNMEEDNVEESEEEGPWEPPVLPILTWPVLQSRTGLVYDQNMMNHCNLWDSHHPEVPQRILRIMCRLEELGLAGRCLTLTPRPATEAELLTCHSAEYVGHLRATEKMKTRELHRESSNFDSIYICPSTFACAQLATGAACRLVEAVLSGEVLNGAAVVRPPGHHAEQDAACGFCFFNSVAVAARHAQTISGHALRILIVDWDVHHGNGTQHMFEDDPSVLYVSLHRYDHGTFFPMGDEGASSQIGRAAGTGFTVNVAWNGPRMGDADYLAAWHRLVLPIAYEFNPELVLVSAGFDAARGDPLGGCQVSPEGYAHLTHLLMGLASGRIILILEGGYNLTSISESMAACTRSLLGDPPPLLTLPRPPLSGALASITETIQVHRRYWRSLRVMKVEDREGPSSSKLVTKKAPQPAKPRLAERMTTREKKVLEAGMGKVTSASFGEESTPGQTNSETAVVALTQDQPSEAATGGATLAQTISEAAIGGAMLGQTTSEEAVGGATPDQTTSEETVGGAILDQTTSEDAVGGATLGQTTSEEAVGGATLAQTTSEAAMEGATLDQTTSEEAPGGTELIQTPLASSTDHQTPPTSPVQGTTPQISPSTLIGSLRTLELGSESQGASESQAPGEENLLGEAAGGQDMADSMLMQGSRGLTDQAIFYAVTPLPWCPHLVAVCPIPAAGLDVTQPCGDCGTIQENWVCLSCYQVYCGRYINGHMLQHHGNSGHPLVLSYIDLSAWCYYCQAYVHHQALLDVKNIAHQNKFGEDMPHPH
Text: as §5

G402 = test: CellTiter-Glo cell viability assay, G402; assay type: cell-based; settings: Homo sapiens, G-402, read-out: anti-proliferative IC50
Protocol: as §1, §2, §3, §4

SCCOHT-1 = test: CellTiter-Glo cell viability assay, SCCOHT-1; assay type: cell-based; settings: Homo sapiens; SCCOHT-1, 72 hours treatment
Protocol: as §1, §2, §3, §4

[6] = test system: SMARCA2 protein expression in BIN-67 cells; test: SMARCA2 protein expression in treated BIN-67 cells; assay type: cell-based, human; settings: in vitro treatment
A204 = test: CellTiter-Glo cell viability assay, A204; assay type: cell-based; settings: Homo sapiens, read-out: anti-proliferative IC50
Protocol: as §1, §2, §3, §4

## CC[C@H](C(=O)Nc1ncc(C(=O)NO)s1)c1ccc(OC)cc1 [GB-3103, (S)-N-hydroxy-2-(2-(4-methoxyphenyl)butanamido)thiazol-5-carboxamide]
H522
  IC50: 102 nM
[1]
  IC50: 50 to 200 nM
[2]; G401 xenograft, dosed for 30 days
  tumor volume compared to vehicle control tumors: statistically significant decreases in volume
[2]; G401 xenografts in mice, 5 mg/kg, QD, P<0.05
  tumor growth inhibition (TGI) compared to vehicle control: 70%
COV434; COV434, read-out: anti-proliferative IC50
  IC50: 35 nM
COV434; COV434, 72 hours treatment, read-out: IC50
  IC50: 35 nM
HDAC7
  IC50: 34.5 nM
BIN67
  IC50: 51 nM
HDAC10
  IC50: 2.03 nM
HDAC1
  IC50: 1 nM
HDAC8
  IC50: 133 nM
G401
  IC50: 138 nM
A427
  IC50: 174 nM
CT-26 tumors; CT-26 syngeneic model, combined with anti-mPD-1 antibody
  effect on established tumors: regression of established CT-26 tumors
CT-26 tumors; CT-26 syngeneic model, combined with anti-mPD-L1 antibody
  effect on established tumors: regression of established CT-26 tumors
CT-26 tumors; CT-26 syngeneic model, single agent
  TGI: 93%
CT-26 tumors; CT-26 syngeneic model, single agent, growth continued until Day 26
  day on which tumor growth resumed: 15 days
CT-26 tumors; alone and in combination with anti-PD-1/anti-PD-L1 checkpoint modulators, mice
  tumor memory response: creates a tumor memory response preventing re-growth of tumors
HDAC11
  IC50: 5.78 µM
HDAC9
  IC50: 187 nM
HDAC3
  IC50: 0.565 nM
HDAC5
  IC50: 73.5 nM
BIN67 cells
  RNA-Seq findings: affects DNA replication and mRNA stability as well as inducing the expression of MHC Class II proteins
HDAC4
  IC50: 138 nM
HDAC2
  IC50: 5.3 nM
[3]
  IC50: 51 to 293 nM
[4]
  induction of SMARCA2 gene (mRNA) expression: concentration and time dependent induction of SMARCA2 gene re-expression; also recorded: potent concentration- and time-dependent induction of SMARCA2 expression at both mRNA and protein levels
[5]; 5 mg/kg QD
  mean tumor regression: 26%
[5]; 10 mg/kg QD
  mean tumor regression: 33%
[5]; BIN-67 xenograft, dosed for 60 days
  tumor volume compared to vehicle control tumors: statistically significant decreases in volume
HDAC6
  IC50: 0.706 nM
  mode of inhibition of HDAC6: irreversible
G402
  IC50: 71 nM
SCCOHT-1
  IC50: 293 nM
[6]
  induction of SMARCA2 protein expression: potent concentration- and time-dependent induction of SMARCA2 expression at both mRNA and protein levels
A204
  IC50: 95 nM
